{"source": "patent US8518896B2", "about": "“Treatment of cancers of the blood using selected glycomimetic compounds” (Glycomimetics, Inc., priority 2008, dated 2013)", "test_system": "neutrophils", "conditions": "mice; 5-FU 150 mg/kg i.p. or cyclophosphamide 300 mg/kg i.p.; lasts for at least one week", "method": "At varying time points after treatment, blood samples are taken from the mice and analyzed for different cell types including neutrophils.\nAs diagrammed in FIG. 10, mice are treated with Compound #2 for 14 days by intraperitoneal injections (50 mg/kg) twice a day. On day 12 within this treatment period, a cohort of mice receives an injection of a chemotherapeutic drug; either 5-fluorouracil (150 mg/kg i.p.) or cyclophosphamide (300 mg/kg i.p.). On the third day after treatment with Compound #2, blood is obtained by cardiac puncture from one cohort of mice to determine a complete blood count (CBC). Other cohorts of mice are bled and analyzed (CBC) on days 5, 7, 9 and 15 after Compound #2 treatment."}
{"smiles": "O=P1(N(CCCl)CCCl)NCCCO1", "note": "(stereo not shown) [cyclophosphamide]", "values": [{"measurement": "neutropenia caused by the chemotherapeutic drug", "value": "severe neutropenia"}]}
